Reference: the Kinase Knowledgebase extract (Sharma et al. 2016)

Legend:
[1] = biological target: PIK3CG (human) (UniProt P48736); assay: Inhibition of PIK3CG Kinase Activity
[2] = biological target: PIK3CB (Human) (UniProt P42338); assay: Inhibition of PIK3CB Kinase Activity
[3] = biological target: PIK3CD (Human) (UniProt O00329); assay: Inhibition of PIK3CD Kinase Activity
[4] = biological target: PIK3CA (human) (UniProt P42336); assay: Inhibition of PIK3CA Kinase Activity
Sequence of PIK3CA (human) (P42336 whole entry, looked up): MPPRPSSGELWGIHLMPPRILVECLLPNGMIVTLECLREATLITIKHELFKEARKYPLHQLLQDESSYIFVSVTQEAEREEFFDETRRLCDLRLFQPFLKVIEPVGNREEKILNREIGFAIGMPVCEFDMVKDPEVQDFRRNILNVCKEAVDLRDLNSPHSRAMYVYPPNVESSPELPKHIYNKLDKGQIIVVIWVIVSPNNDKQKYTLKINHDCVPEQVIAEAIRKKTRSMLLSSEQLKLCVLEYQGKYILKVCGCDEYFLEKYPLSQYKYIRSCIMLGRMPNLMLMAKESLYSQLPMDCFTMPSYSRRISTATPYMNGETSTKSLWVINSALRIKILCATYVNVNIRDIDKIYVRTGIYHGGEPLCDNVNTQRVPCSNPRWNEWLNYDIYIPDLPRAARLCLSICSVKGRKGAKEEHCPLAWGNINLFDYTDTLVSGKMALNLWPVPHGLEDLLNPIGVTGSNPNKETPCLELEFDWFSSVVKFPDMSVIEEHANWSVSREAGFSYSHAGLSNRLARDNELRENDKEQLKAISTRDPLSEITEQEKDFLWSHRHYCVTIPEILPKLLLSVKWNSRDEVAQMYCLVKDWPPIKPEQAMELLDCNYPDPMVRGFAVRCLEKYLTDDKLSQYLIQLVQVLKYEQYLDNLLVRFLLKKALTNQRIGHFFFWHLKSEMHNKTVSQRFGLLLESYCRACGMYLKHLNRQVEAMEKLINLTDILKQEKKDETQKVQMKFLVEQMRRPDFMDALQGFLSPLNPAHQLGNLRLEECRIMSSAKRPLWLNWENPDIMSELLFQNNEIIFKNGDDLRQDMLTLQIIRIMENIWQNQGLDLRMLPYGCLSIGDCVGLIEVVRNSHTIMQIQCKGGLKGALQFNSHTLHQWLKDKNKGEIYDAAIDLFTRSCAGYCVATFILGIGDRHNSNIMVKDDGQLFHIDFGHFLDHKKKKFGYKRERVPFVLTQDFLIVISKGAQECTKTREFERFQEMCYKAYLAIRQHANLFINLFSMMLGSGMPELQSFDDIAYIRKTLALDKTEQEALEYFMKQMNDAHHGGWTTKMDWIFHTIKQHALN

Sequence of PIK3CB (Human) (P42338 whole entry, looked up): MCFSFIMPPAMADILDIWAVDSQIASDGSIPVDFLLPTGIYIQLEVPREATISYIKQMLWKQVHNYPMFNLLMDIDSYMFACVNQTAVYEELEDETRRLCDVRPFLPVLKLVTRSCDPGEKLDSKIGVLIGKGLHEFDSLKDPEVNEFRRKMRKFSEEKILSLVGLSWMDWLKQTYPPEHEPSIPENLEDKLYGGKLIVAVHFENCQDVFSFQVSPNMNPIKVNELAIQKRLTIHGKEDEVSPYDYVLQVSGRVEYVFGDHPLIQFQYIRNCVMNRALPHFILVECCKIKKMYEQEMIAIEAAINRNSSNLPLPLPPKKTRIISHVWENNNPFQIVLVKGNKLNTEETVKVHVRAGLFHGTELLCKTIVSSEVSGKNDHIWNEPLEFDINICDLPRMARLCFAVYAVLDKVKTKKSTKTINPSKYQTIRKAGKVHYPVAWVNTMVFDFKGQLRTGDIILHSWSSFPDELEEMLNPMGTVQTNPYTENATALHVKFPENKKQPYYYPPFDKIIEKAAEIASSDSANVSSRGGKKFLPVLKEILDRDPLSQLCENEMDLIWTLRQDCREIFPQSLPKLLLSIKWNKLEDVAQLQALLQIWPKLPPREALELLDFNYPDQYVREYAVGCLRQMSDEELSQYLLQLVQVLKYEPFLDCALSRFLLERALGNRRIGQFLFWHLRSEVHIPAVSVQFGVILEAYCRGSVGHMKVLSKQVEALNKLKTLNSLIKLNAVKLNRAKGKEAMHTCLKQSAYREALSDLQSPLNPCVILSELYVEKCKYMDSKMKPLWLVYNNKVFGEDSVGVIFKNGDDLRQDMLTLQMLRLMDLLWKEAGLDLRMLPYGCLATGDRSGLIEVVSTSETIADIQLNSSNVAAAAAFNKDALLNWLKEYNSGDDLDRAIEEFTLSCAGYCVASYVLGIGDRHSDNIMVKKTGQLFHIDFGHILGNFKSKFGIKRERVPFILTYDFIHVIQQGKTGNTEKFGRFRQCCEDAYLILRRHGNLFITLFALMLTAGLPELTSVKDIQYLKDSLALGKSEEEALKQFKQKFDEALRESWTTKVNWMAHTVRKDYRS
Sequence of PIK3CG (human) (P48736 whole entry, looked up): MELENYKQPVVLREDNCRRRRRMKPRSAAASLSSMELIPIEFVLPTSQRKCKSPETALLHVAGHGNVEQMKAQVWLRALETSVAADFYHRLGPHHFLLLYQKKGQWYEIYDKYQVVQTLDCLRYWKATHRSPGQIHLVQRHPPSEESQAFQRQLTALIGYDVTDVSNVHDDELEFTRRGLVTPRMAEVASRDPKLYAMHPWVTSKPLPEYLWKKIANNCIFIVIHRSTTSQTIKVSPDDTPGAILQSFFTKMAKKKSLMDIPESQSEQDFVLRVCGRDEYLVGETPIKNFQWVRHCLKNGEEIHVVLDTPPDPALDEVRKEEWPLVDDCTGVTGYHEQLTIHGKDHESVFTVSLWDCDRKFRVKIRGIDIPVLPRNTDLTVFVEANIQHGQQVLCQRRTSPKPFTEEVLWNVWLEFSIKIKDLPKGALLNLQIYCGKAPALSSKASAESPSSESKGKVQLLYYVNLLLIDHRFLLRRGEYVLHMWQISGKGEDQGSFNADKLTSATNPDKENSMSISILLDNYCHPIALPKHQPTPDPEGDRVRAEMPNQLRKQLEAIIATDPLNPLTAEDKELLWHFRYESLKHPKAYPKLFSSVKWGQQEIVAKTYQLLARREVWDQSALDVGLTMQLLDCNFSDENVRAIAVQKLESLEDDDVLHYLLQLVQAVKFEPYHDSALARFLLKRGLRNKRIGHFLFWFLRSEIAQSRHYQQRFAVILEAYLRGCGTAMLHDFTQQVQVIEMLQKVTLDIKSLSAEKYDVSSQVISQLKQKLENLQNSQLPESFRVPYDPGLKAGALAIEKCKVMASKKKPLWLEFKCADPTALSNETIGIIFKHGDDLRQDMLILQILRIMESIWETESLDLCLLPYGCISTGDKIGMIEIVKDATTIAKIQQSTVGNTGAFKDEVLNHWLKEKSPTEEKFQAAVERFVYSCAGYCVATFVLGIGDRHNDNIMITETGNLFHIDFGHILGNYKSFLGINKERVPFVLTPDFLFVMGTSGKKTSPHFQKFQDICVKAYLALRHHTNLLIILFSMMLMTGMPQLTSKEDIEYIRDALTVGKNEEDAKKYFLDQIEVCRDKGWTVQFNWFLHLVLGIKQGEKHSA
Sequence of PIK3CD (Human) (O00329 whole entry, looked up): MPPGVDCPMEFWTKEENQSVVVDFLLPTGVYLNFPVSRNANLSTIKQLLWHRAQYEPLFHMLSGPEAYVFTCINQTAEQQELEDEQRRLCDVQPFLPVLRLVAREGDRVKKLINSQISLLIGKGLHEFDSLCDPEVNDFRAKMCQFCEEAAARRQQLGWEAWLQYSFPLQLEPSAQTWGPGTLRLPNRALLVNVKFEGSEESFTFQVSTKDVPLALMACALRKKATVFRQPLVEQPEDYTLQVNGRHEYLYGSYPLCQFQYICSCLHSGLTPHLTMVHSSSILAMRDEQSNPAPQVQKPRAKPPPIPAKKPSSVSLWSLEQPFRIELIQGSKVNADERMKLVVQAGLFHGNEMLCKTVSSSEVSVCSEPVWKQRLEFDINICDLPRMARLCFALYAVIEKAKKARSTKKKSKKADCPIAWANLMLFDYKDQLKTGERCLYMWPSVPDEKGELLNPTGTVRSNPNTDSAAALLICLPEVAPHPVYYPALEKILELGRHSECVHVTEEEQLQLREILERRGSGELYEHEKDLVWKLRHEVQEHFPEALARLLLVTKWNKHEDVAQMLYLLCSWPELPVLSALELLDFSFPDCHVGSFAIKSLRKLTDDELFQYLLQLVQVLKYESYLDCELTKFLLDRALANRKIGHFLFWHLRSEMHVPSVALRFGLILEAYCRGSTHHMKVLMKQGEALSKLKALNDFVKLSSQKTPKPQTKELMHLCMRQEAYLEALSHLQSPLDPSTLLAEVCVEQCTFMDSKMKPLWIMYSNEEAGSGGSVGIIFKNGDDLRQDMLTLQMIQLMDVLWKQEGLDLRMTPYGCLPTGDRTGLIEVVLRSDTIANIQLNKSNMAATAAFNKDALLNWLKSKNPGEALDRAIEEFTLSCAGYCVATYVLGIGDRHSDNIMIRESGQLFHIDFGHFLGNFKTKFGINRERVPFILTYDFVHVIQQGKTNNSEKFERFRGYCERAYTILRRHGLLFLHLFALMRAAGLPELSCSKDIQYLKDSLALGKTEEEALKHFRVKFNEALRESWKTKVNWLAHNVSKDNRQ

Row | Compound | IC50 [1] | IC50 [2] | IC50 [3] | IC50 [4]
1 | Nc1nc2cc(-c3cccnc3)ccn2n1 | 100 to 1000 nM |  |  | 
2 | Nc1nc2cc(-c3cncc(S(N)(=O)=O)c3)ccn2n1 | < 100 nM | 100 to 1000 nM | 100 to 1000 nM | 
3 | CCNS(=O)(=O)c1cncc(-c2ccn3nc(N)nc3c2)c1 | < 100 nM | 100 to 1000 nM | 100 to 1000 nM | 
4 | CC(C)NS(=O)(=O)c1cncc(-c2ccn3nc(N)nc3c2)c1 | < 100 nM | 100 to 1000 nM | 100 to 1000 nM | 
5 | CCN(CC)S(=O)(=O)c1cncc(-c2ccn3nc(N)nc3c2)c1 | < 100 nM | 100 to 1000 nM | 100 to 1000 nM | 
6 | CCCCNS(=O)(=O)c1cccc(-c2ccn3nc(N)nc3c2)c1 | 100 to 1000 nM |  |  | 
7 | Nc1nc2cc(-c3cncc(S(=O)(=O)NC4CC4)c3)ccn2n1 | < 100 nM | 100 to 1000 nM | 100 to 1000 nM | 
8 | CC(C)(C)NS(=O)(=O)c1cncc(-c2cc(F)n3nc(N)nc3c2)c1 | < 100 nM | 100 to 1000 nM |  | 
9 | CCN(C)S(=O)(=O)c1cncc(-c2ccn3nc(N)nc3c2)c1 | < 100 nM |  | 100 to 1000 nM | 100 to 1000 nM
10 | Nc1nc2cc(-c3cncc(S(=O)(=O)Nc4ccccc4)c3)ccn2n1 | < 100 nM |  |  | 100 to 1000 nM
11 | CC(C)(C)NS(=O)(=O)c1cncc(-c2ccn3nc(N)nc3c2)c1 | < 100 nM | 100 to 1000 nM | 100 to 1000 nM | 100 to 1000 nM
12 | Nc1nc2cc(-c3cncc(C(F)(F)F)c3)ccn2n1 | 100 to 1000 nM |  |  | 
13 | Nc1nc2cc(-c3cncc(S(=O)(=O)NCC(F)(F)F)c3)ccn2n1 | < 100 nM |  |  | 
14 | CC(C)(NS(=O)(=O)c1cncc(-c2ccn3nc(N)nc3c2)c1)C(F)(F)F | < 100 nM | 100 to 1000 nM | 100 to 1000 nM | 
15 | CS(=O)(=O)c1cccc(-c2ccn3nc(N)nc3c2)c1 | 100 to 1000 nM |  |  | 
16 | CS(=O)(=O)c1cncc(-c2ccn3nc(N)nc3c2)c1 | < 100 nM |  |  | 
17 | COc1ccc(-c2ccn3nc(N)nc3c2)cc1OC | < 100 nM |  | 100 to 1000 nM | 100 to 1000 nM
18 | Nc1nc2cc(-c3cncc(S(=O)(=O)NCc4ccccc4)c3)ccn2n1 | < 100 nM |  |  | 
19 | CNS(=O)(=O)c1cncc(-c2ccn3nc(N)nc3c2)c1 | < 100 nM | 100 to 1000 nM | 100 to 1000 nM | 
20 | CCCNS(=O)(=O)c1cncc(-c2ccn3nc(N)nc3c2)c1 | < 100 nM |  |  | 
21 | Nc1nc2cc(-c3cncc(S(=O)(=O)N4CCC4)c3)ccn2n1 | < 100 nM |  |  | 
